From patent US7985760B2, “Piperidinetriol derivatives as inhibitors of glycosyceramid synthase” (Actelion Pharmaceuticals Ltd., priority 2002, dated 2011)
Where two headings read alike, the source gives them in different places.

What was measured:
[1] = target: T1, human recombinant GCS expressed in insect cells (Homo sapiens, UniProt Q16739); experiment: Inhibition of GCS; format: biochemical
T1 construct: made in house; host or cells: insect cells
T1 sequence (Q16739 1-394): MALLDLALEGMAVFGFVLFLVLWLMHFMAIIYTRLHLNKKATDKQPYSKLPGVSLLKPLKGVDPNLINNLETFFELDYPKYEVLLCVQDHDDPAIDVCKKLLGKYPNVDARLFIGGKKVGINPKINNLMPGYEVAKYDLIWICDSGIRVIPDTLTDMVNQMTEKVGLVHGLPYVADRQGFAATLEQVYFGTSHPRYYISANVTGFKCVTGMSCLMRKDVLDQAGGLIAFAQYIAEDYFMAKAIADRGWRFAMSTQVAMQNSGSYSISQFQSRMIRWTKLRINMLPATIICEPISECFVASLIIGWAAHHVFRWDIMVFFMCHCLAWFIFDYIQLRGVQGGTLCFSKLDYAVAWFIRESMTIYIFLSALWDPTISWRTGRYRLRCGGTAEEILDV

[2] = target: T2, non-lysosomal-β-glucocerebrosidase (Homo sapiens, UniProt Q9HCG7); experiment: Inhibition of non-lysosomal-β-glucocerebrosidase; format: biochemical; conditions: whole cell extracts of MCF7 as enzyme source; 4-MU β-glucoside substrate; pH 5.8
T2 construct: whole cell extracts of MCF7(a human breast carcinoma cell line) was used as the source of the enzyme; endogenous in cells; host or cells: MCF7 whole cell extract
T2 sequence (Q9HCG7 1-927): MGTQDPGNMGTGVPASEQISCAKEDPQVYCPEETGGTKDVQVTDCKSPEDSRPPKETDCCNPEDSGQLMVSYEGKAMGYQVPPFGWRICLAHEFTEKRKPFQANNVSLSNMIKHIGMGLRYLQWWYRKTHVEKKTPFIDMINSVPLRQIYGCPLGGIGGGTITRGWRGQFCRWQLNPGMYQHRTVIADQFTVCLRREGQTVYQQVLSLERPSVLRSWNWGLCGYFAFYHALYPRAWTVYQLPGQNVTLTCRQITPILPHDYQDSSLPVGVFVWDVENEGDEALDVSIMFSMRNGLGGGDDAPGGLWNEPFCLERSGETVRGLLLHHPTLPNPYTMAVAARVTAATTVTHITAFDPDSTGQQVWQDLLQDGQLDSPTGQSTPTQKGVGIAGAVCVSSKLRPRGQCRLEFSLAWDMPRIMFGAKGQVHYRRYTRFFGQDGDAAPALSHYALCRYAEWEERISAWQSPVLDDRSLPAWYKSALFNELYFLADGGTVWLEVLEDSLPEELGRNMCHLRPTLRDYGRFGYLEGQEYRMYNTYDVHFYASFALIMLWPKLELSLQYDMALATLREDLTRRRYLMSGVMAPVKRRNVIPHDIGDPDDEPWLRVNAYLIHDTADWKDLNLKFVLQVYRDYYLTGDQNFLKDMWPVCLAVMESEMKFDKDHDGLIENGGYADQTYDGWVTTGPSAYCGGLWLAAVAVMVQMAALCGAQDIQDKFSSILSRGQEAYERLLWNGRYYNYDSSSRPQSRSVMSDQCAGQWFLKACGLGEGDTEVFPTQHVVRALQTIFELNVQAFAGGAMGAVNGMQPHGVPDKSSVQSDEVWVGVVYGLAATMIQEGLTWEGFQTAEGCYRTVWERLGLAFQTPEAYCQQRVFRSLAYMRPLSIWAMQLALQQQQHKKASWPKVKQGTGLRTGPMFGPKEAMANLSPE

[3] = target: T3, human GCS (Homo sapiens, UniProt Q16739); experiment: Cell-based IC50 for GCS inhibition by measuring glucosylceramide (GlcCer) depletion; conditions: MCF-7 cells cultured for 5-7 days; GlcCer quantified by HPTLC; read-out: Inhibition of GCS Cellular-based (IC50 μM)
T3 construct: Human mammary epithelial cells (MCF-7) were cultured for 5-7 days, with varying concentrations of a compound of the invention; endogenous in cells; host or cells: MCF-7
T3 sequence (Q16739 1-394): T1 sequence (Q16739 1-394)

[4] = human recombinant GCS expressed in insect cells, read-out: Inhibition of GCS (IC50)

Row | IC50 [1, 4] | IC50 [2] | IC50 [3] | IC50 [1] | Compound
1 | 2700 nM | 110 nM |  |  | COc1cc(OCc2ccccc2)ccc1CN1C[C@H](O)[C@@H](O)[C@H](O)[C@@H]1CO [Example 1, 3,4,5-Piperidinetriol, 2-(hydroxymethyl)-1-[[2-methoxy-4-(phenylmethoxy)phenyl]methyl]-, (2S,3R,4R,5S)]
2 | 1800 nM | 750 nM |  |  | CN(C)c1ccc(CN2C[C@H](O)[C@@H](O)[C@H](O)[C@@H]2CO)c(F)c1C#N [Example 3, 3,4,5-Piperidinetriol, 1-[(3-cyano-4-dimethylamino-2-fluorophenyl)methyl]-2-(hydroxymethyl)-, (2S,3R,4R,5S)]
3 | 670 nM | 69 nM |  |  | O=C(NCc1ccc(F)cc1)c1ccc(CN2C[C@H](O)[C@@H](O)[C@H](O)[C@@H]2CO)cc1 [Example 6, Benzamide, N-[(4-fluorophenyl)methyl]-4-[[(2S,3R,4R,5S)-3,4,5-trihydroxy-2-(hydroxymethyl)-1-piperldinyl]methyl]-,]
4 | 280 nM | 84 nM |  |  | CC(NC(=O)c1ccc(CN2C[C@H](O)[C@@H](O)[C@H](O)[C@@H]2CO)cc1)c1ccccc1 (stereo partly drawn) [Example 7, Benzamide, N-[1-phenylethyl]4-[[(2S,3R,4R,5S)-3,4,5-trihydroxy-2-(hydroxymethyl)-1-piperidinyl]-methyl]-,]
5 | 490 nM | 42 nM |  |  | C[C@@H](NC(=O)c1ccc(CN2C[C@H](O)[C@@H](O)[C@H](O)[C@@H]2CO)cc1)c1ccc(F)cc1 [Example 8, Benzamide, N-[1-(R)-(4-fluorophenyl)ethyl]4-[[(2S,3R,4R,5S)-3,4,5-trihydroxy-2-(hydroxymethyl)-1-piperidinyl]methyl]-,]
6 | 320 nM | 5 nM |  |  | OC[C@H]1[C@@H](O)[C@H](O)[C@@H](O)CN1Cc1ccc(OCc2ccccc2)c(Cl)c1 [Example 10, 3,4,5-Piperidinetriol, 2-(hydroxymethyl)-1-[[3-chloro-4-(phenylmethoxy)phenyl]methyl]-, (2S,3R,4R,5S)]
7 | 210 nM | 3 nM | < 0.01 µM |  | OC[C@H]1[C@@H](O)[C@H](O)[C@@H](O)CN1Cc1ccc(OCc2ccccc2)cc1 [Example 11, 3,4,5-Piperidinetriol, 2-(hydroxymethyl)-1-[[4-(phenylmethoxy)phenyl]methyl]-, (2S,3R,4R,5S)]
8 | 290 nM | 2 nM |  |  | OC[C@H]1[C@@H](O)[C@H](O)[C@@H](O)CN1Cc1ccc(/C=C/c2ccccc2)cc1 [Example 13, 3,4,5-Piperidinetriol, 1-[(4-trans-styrylphenyl)methyl]-2-(hydroxymethyl)-, (2S,3R,4R,5S)]
9 | 1400 nM | 19 nM |  |  | O=C(c1ccc(CN2C[C@H](O)[C@@H](O)[C@H](O)[C@@H]2CO)cc1)N1CCCc2ccccc21 [Example 14]
10 | 550 nM | 120 nM |  |  | CCN(CC)c1ccc(CN2C[C@H](O)[C@@H](O)[C@H](O)[C@@H]2CO)c(F)c1C#N [Example 18, 3,4,5-Piperidinetriol, 2-(hydroxymethyl)-1-[(3-cyano-4-(diethylamino)-2-fluorophenyl)-methyl]-, (2S,3R,4R,5S)]
11 | 410 nM | 4 nM |  |  | OC[C@H]1[C@@H](O)[C@H](O)[C@@H](O)CN1Cc1ccc(Oc2ccccc2)cc1 [Example 19, 3,4,5-Piperidinetriol, 2-(hydroxymethyl)-1-[(4-phenoxyphenyl)methyl]-, (2S,3R,4R,5S)]
12 | 2500 nM | 55 nM |  |  | OC[C@H]1[C@@H](O)[C@H](O)[C@@H](O)CN1Cc1ccc2c(c1)OCCO2 [Example 20, 3,4,5-Piperidinetriol, 1-[(3,4-ethylenedioxyphenyl)methyl]-2-(hydroxymethyl)-, (2S,3R,4R,5S)]
13 |  | 910 nM |  | 910 nM | O=S(=O)(Nc1ccc(CN2C[C@H](O)[C@@H](O)[C@H](O)[C@@H]2CO)cc1)c1ccccc1 [Example 22, Benzenesulfonamide, N-[4-[[(2S,3S,4R,5S)-3,4,5-trihydroxy-2-(hydroxymethyl)-1-piperidinyl]methyl]-phenyl]-,]
